Measurements as given in patent US10988477B2 (Merck Patent GmbH, priority 2018, dated 2021).
pIC50, pKi: −log10 of the molar value.

Assays:
GCN2 kinase = GCN2 kinase (Homo sapiens, UniProt Q9P2K8); assay: GCN2 enzyme inhibition assay (Transcreener ADP2 fluorescence polarization); type: biochemical; conditions: 280 μM ATP
In short: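 FP detection of ADP (antibody plus Alexa633 tracer) after a 1 h, 25 °C kinase reaction. Enzyme 4 nM, ATP 280 μM, (RS)7 peptide 200 μM, Tris pH 7.5 buffer with MgCl2 and DTT. Percent inhibition fitted by non-linear tight-binding algorithm for IC50 and Ki(app).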

[1] = target: intracellular GCN2 (phosphorylation of the GCN2 substrate eIF2α) (Homo sapiens, UniProt Q9P2K8); assay: GCN2 cellular inhibition assay (AlphaScreen SureFire P-eIF2α Ser51, borrelidin-treated U2OS cells); type: cell-based; conditions: biomarker assay, phosphorylated eIF2α Ser51 in borrelidin-treated U2OS cells
In short: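 Read-out: AlphaScreen SureFire phospho-eIF2α (Ser51) signal in U2OS lysates. Cells get 4-fold compound dilutions (top 40 μM final) plus 10 μM borrelidin, 1 h, 37 °C. Percent inhibition is relative to borrelidin-alone controls.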

[2] = Enzyme activity for compounds of Formula IV, Ki(app), 25° C.
[3] = compounds of Formula II, 4 nM GCN2 kinase

intracellular GCN2 (phosphorylation of the GCN2 substrate eIF2α), sequence (Q9P2K8 whole entry): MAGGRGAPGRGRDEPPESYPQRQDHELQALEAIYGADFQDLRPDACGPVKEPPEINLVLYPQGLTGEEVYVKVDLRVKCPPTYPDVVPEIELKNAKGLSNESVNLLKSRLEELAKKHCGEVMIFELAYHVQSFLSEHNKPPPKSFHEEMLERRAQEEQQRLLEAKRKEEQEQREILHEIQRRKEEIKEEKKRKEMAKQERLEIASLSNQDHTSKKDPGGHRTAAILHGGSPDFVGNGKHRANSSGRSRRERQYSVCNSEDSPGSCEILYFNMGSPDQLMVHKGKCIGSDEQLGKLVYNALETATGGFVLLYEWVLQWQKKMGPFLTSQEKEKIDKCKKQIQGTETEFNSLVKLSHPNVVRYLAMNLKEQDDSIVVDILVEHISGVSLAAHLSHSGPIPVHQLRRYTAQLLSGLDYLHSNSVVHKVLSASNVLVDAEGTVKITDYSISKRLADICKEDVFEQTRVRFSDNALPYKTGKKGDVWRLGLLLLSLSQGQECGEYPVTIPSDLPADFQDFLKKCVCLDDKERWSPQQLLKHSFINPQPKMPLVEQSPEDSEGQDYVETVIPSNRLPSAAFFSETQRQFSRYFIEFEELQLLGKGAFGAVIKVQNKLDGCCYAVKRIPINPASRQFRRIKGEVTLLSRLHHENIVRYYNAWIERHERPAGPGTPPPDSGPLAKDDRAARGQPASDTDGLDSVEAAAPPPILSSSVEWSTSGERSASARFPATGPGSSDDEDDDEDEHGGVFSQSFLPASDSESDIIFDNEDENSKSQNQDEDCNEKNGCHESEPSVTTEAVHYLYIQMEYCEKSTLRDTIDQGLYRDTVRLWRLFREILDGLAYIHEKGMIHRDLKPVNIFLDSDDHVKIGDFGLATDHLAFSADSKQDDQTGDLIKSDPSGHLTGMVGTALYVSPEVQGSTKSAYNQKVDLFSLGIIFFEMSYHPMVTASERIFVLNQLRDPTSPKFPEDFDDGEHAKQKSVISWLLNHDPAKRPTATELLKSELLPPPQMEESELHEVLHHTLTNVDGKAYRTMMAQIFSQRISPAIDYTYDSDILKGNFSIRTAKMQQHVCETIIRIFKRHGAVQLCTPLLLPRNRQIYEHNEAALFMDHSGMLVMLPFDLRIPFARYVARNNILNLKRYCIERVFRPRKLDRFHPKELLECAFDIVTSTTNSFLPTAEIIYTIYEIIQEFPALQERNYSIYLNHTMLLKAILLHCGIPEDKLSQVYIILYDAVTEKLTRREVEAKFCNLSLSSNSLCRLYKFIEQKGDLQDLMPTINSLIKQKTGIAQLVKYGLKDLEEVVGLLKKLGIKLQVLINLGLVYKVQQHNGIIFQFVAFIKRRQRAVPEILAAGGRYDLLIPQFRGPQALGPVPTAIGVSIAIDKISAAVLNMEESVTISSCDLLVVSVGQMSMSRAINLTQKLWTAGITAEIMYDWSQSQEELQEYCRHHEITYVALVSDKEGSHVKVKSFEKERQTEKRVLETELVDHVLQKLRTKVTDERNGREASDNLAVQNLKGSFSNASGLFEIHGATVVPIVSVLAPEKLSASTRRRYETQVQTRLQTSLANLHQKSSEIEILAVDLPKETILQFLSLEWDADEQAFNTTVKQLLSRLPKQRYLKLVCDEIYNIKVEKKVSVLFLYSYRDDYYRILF
GCN2 kinase, sequence (Q9P2K8 whole entry): as above

| Structure (SMILES) | pKi (GCN2 kinase; [2]) | pIC50 ([1]; compounds of Formula IV) | pKi (GCN2 kinase; [3]) | pIC50 ([1]; compounds of Formula II) |
| --- | --- | --- | --- | --- |
| CC1CN(c2ccnc(-c3cnc4cnc(C(F)(F)F)cn34)n2)CC(c2cn[nH]c2)O1 (single isomer, unassigned) [IV-13, 2-Methyl-6-(1H-pyrazol-4-yl)-4-(2-(6-(trifluoromethyl)imidazo[1,2-a]pyrazin-3-yl)pyrimidin-4-yl)morpholine] | 7.00 to 8.00 | > 6.30 | – | – |
| CC1CN(c2cncc(-c3cnc4cnc(C(F)(F)F)cn34)n2)C(C)C(c2cn[nH]c2)N1 (single isomer, unassigned) [IV-649, 3-(6-(2,5-Dimethyl-3-(1H-pyrazol-4-yl)piperazin-1-yl)pyrazin-2-yl)-6-(trifluoromethyl)imidazo[1,2-a]pyrazine] | 6.00 to 7.00 | < 5.30 | – | – |
| FC(F)(F)c1cn2c(-c3nccc(N4CCOC(c5cn[nH]c5)C4)n3)cnc2cn1 (stereo not shown) [IV-3, 2-(1H-Pyrazol-4-yl)-4-(2-(6-(trifluoromethyl)imidazo[1,2-a]pyrazin-3-yl)pyrimidin-4-yl)morpholine] | > 8.00 | > 6.30 | – | – |
| C[C@H]1[C@@H](c2cn[nH]c2)N(C)CCN1c1ccnc(-c2cnc3cnc(Br)cn23)n1 (relative stereo) [IV-392, Cis-6-Bromo-3-(4-(2,4-dimethyl-3-(1H-pyrazol-4-yl)piperazin-1-yl)pyrimidin-2-yl)imidazo[1,2-a]pyrazine] | > 8.00 | > 6.30 | – | – |
| CS(=O)(=O)NC[C@@H]1CN(c2cc(-c3cnc4ccc(C(F)F)nn34)ncn2)C[C@H](C(F)(F)F)O1 [II-331, N-(((2S,6R)-4-(6-(6-(Difluoromethyl)imidazo[1,2-b]pyridazin-3-yl)pyrimidin-4-yl)-6-(trifluoromethyl)morpholin-2-yl)methyl)methanesulfonamide] | – | – | > 8.00 | > 6.30 |
| CS(=O)(=O)NCC1CCCN(c2cc(-c3cnc4ccc(C(F)F)nn34)cc(CN)n2)C1 (stereo not shown) [II-80, N-((1-(6-(Aminomethyl)-4-(6-(difluoromethyl)imidazo[1,2-b]pyridazin-3-yl)pyridin-2-yl)piperidin-3-yl)methyl)methanesulfonamide] | – | – | > 8.00 | 5.30 to 6.30 |
| OCC12CC1CN(c1ccnc(-c3cnc4cnc(C(F)F)cn34)n1)C2 (stereo not shown) [IV-111, (3-(2-(6-(Difluoromethyl)imidazo[1,2-a]pyrazin-3-yl)pyrimidin-4-yl)-3-azabicyclo[3.1.0]hexan-1-yl)methanol] | 6.00 to 7.00 | < 5.30 | – | – |
| CS(=O)(=O)N1CCC2(CCN2c2cncc(-c3cnc4ccc(C(F)F)nn34)c2)CC1 [II-42, 6-(Difluoromethyl)-3-(5-(7-(methylsulfonyl)-1,7-diazaspiro[3.5]nonan-1-yl)pyridin-3-yl)imidazo[1,2-b]pyridazine] | – | – | 6.00 to 8.00 | < 5.30 |
| CC1CN(c2cc(-c3cnc4ccc(C(F)F)nn34)ncn2)CC(CNS(C)(=O)=O)=C1F (stereo not shown) [II-537, N-((1-(6-(6-(Difluoromethyl)imidazo[1,2-b]pyridazin-3-yl)pyrimidin-4-yl)-4-fluoro-5-methyl-1,2,5,6-tetrahydropyridin-3-yl)methyl)methanesulfonamide] | – | – | > 8.00 | > 6.30 |
| NC(=O)NCC1CCCN(c2ccnc(-c3cnc4cnc(C(F)F)cn34)n2)C1 (stereo not shown) [IV-41, 1-((1-(2-(6-(Difluoromethyl)imidazo[1,2-a]pyrazin-3-yl)pyrimidin-4-yl)piperidin-3-yl)methyl)urea] | 6.00 to 7.00 | < 5.30 | – | – |
| CS(=O)(=O)NCC1CCCN(c2cc(-c3cnc4ccc(C(F)F)nn34)ncn2)C1 (stereo not shown) [II-59, N-((1-(6-(6-(Difluoromethyl)imidazo[1,2-b]pyridazin-3-yl)pyrimidin-4-yl)piperidin-3-yl)methyl)methanesulfonamide] | – | – | > 8.00 | > 6.30 |
| CC1NCCN(c2cc(-c3cnc4ccc(C(F)F)nn34)ncn2)C1CNS(C)(=O)=O (stereo not shown) [II-336, N-((1-(6-(6-(Difluoromethyl)imidazo[1,2-b]pyridazin-3-yl)pyrimidin-4-yl)-3-methylpiperazin-2-yl)methyl)methanesulfonamide] | – | – | < 6.00 | < 5.30 |
| NS(=O)(=O)CC1CCCN(c2cc(-c3cnc4ccc(C(F)F)nn34)ncn2)C1 (stereo not shown) [II-219, (1-(6-(6-(Difluoromethyl)imidazo[1,2-b]pyridazin-3-yl)pyrimidin-4-yl)piperidin-3-yl)methanesulfonamide] | – | – | > 8.00 | > 6.30 |
| FC(F)c1ccc2ncc(-c3cc(N4CCCCC4C(F)(F)F)ncn3)n2n1 (stereo not shown) [II-380, 6-(Difluoromethyl)-3-(6-(2-(trifluoromethyl)piperidin-1-yl)pyrimidin-4-yl)imidazo[1,2-b]pyridazine] | – | – | < 6.00 | < 5.30 |
| C[C@H]1CN(c2cc(-c3cnc4ccc(C(F)F)nn34)ncn2)C[C@@H]1CNS(C)(=O)=O [II-237, N-(((3R,4R)-1-(6-(6-(Difluoromethyl)imidazo[1,2-b]pyridazin-3-yl)pyrimidin-4-yl)-4-methylpyrrolidin-3-yl)methyl)methanesulfonamide] | – | – | > 8.00 | 5.30 to 6.30 |
| O=C1CN(c2cc(-c3cnc4ccc(C(F)F)nn34)ccn2)CC2(CC2)N1 [II-160, 7-(4-(6-(Difluoromethyl)imidazo[1,2-b]pyridazin-3-yl)pyridin-2-yl)-4,7-diazaspiro[2.5]octan-5-one] | – | – | 6.00 to 8.00 | 5.30 to 6.30 |
| N#CCC1CCCN(c2cc(-c3cnc4ccc(C(F)F)nn34)ncn2)C1 (stereo not shown) [II-299, 2-(1-(6-(6-(Difluoromethyl)imidazo[1,2-b]pyridazin-3-yl)pyrimidin-4-yl)piperidin-3-yl)acetonitrile] | – | – | 6.00 to 8.00 | 5.30 to 6.30 |
| CCC1CC(N=S(C)(C)=O)CN(c2cc(-c3cnc4ccc(C(F)F)nn34)ncn2)C1 (single isomer, unassigned) [II-650, ((1-(6-(6-(Difluoromethyl)imidazo[1,2-b]pyridazin-3-yl)pyrimidin-4-yl)-5-ethylpiperidin-3-yl)imino)dimethyl-λ^6-sulfanone] | – | – | > 8.00 | > 6.30 |
| NS(=O)(=O)NCC1CCN(c2cc(-c3cnc4ccc(C(F)F)nn34)ncn2)C1 (stereo not shown) [II-415, 1-((1-(6-(6-(Difluoromethyl)imidazo[1,2-b]pyridazin-3-yl)pyrimidin-4-yl)pyrrolidin-3-yl)methyl)sulfuric diamide] | – | – | 6.00 to 8.00 | < 5.30 |
| FC(F)c1cn2c(-c3nccc(N4CCCC(c5c[nH]cn5)C4)n3)cnc2cn1 (stereo not shown) [IV-53, 3-(4-(3-(1H-Imidazol-4-yl)piperidin-1-yl)pyrimidin-2-yl)-6-(difluoromethyl)imidazo[1,2-a]pyrazine] | 7.00 to 8.00 | 5.30 to 6.30 | – | – |
| CS(=O)(=O)NCC1CN(c2ccnc(-c3cnc4ccc(C(F)F)nn34)c2)CCC1(F)F (stereo not shown) [II-103, N-((1-(2-(6-(Difluoromethyl)imidazo[1,2-b]pyridazin-3-yl)pyridin-4-yl)-4,4-difluoropiperidin-3-yl)methyl)methanesulfonamide] | – | – | > 8.00 | > 6.30 |
| CC1CN(c2ccnc(-c3cnc4cnc(C(F)(F)F)cn34)n2)CC(c2c[nH]cn2)O1 (single isomer, unassigned) [IV-406, 2-(1H-Imidazol-4-yl)-6-methyl-4-(2-(6-(trifluoromethyl)imidazo[1,2-a]pyrazin-3-yl)pyrimidin-4-yl)morpholine] | 7.00 to 8.00 | < 5.30 | – | – |
| CC(=O)N1CCN(c2cc(-c3cnc4ccc(OC(F)F)nn34)ccn2)CC1 [II-182, 1-(4-(4-(6-(Difluoromethoxy)imidazo[1,2-b]pyridazin-3-yl)pyridin-2-yl)piperazin-1-yl)ethanone] | – | – | 6.00 to 8.00 | < 5.30 |
| CC1CC(CNS(C)(=O)=O)CN(c2cc(-c3cnc4ccc(C(F)F)nn34)ncn2)C1 (single isomer, unassigned) [II-437, N-((1-(6-(6-(Difluoromethyl)imidazo[1,2-b]pyridazin-3-yl)pyrimidin-4-yl)-5-methylpiperidin-3-yl)methyl)methanesulfonamide] | – | – | > 8.00 | > 6.30 |
| CC1CN(c2ccnc(-c3cnc4cnc(Cl)cn34)n2)CC(c2cn[nH]c2)O1 (single isomer, unassigned) [IV-192, 4-(2-(6-Chloroimidazo[1,2-a]pyrazin-3-yl)pyrimidin-4-yl)-2-methyl-6-(1H-pyrazol-4-yl)morpholine] | > 8.00 | 5.30 to 6.30 | – | – |
| CCN1CCN(c2cc(-c3cnc4ccc(C(F)F)nn34)ncn2)C(C)C1CNS(C)(=O)=O (single isomer, unassigned) [II-543, N-((4-(6-(6-(difluoromethyl)imidazo[1,2-b]pyridazin-3-yl)pyrimidin-4-yl)-1-ethyl-3-methylpiperazin-2-yl)methyl)methanesulfonamide] | – | – | 6.00 to 8.00 | 5.30 to 6.30 |
| CC1CN(c2cccc(-c3cnc4cnc(C(F)(F)F)cn34)n2)C(C)C(c2cn[nH]c2)N1 (stereo not shown) [IV-583, 3-(6-(2,5-Dimethyl-3-(1H-pyrazol-4-yl)piperazin-1-yl)pyridin-2-yl)-6-(trifluoromethyl)imidazo[1,2-a]pyrazine] | > 8.00 | 5.30 to 6.30 | – | – |
| NC(=O)[C@H]1CCCN(c2ccnc(-c3cnc4cnc(C(F)F)cn34)n2)C1 [IV-50, (S)-1-(2-(6-(Difluoromethyl)imidazo[1,2-a]pyrazin-3-yl)pyrimidin-4-yl)piperidine-3-carboxamide] | 7.00 to 8.00 | 5.30 to 6.30 | – | – |
| CS(=O)(=O)N1CCC12CCCN(c1cc(-c3cnc4ccc(C(F)F)nn34)ncn1)C2 (stereo not shown) [II-70, 6-(Difluoromethyl)-3-(6-(1-(methylsulfonyl)-1,6-diazaspiro[3.5]nonan-6-yl)pyrimidin-4-yl)imidazo[1,2-b]pyridazine] | – | – | 6.00 to 8.00 | < 5.30 |
